Results taken from US8952024B2, “Herbicidal pyrimidone derivatives” (E I du Pont de Nemours and Company, priority 2009, dated 2015).

What was measured:
Type in all cases: in vivo
[1] = system: johnsongrass (Sorghum halepense); assay: Test B pre-/postemergence plant response
From the text: (§1) Seeds of plant species selected from blackgrass (Alopecurus myosuroides), downy bromegrass (Bromus tectorum), green foxtail (Setaria viridis), Italian ryegrass (Lolium multiflorum), wheat (Triticum aestivum), wild oat (Avena fatua), deadnettle (henbit deadnettle, Lamium amplexicaule), galium (catchweed bedstraw, Galium aparine), bermudagrass (Cynodon dactylon), Surinam grass (Brachiaria decumbens), cocklebur (Xanthium strumarium), corn (Zea mays), large crabgrass (Digitaria sanguinalis), woolly cupgrass (Eriochloa villosa), giant foxtail (Setaria faberii), goosegrass (Eleusine indica), johnsongrass (Sorghum halepense), kochia (Kochia scoparia), lambsquarters (Chenopodium album), morningglory (Ipomoea coccinea), nightshade (eastern black nightshade, Solanum ptycanthum), yellow nutsedge (Cyperus esculentus), pigweed (Amaranthus retroflexus), ragweed (common ragweed, Ambrosia elatior), Russian thistle (Salsola kali), soybean (Glycine max), sunflower (common oilseed sunflower, Helianthus annuus) and velvetleaf (Abutilon theophrasti) were planted into a blend of loam soil and sand and treated preemergence with test compounds formulated in a non-phytotoxic solvent mixture which included a surfactant.
(§2) At the same time, plants selected from these crop and weed species and also winter barley (Hordeum vulgare), canarygrass (Phalaris minor), chickweed (Stellaria media) and windgrass (Apera spica-venti) were planted in pots containing Redi-Earth® planting medium (Scotts Company, 14111 Scottslawn Road, Marysville, Ohio 43041) comprising spaghnum peat moss, vermiculite, wetting agent and starter nutrients and treated with postemergence applications of some of the test chemicals formulated in the same manner. Plants ranged in height from 2 to 18 cm (1- to 4-leaf stage) for postemergence treatments.
(§3) Treated plants and controls were maintained in a greenhouse for 13 to 15 days, after which time all treated plants were visually evaluated and compared to controls. Plant response ratings, summarized in Table B, are based on a scale of 0 to 100 where 0 is no effect and 100 is complete control. A dash (-) response means no test result.

[2] = system: blackgrass (Alopecurus myosuroides); assay: Test B pre-/postemergence plant response
From the text: as §1, §2, §3

[3] = system: bermudagrass (Cynodon dactylon); assay: Test B pre-/postemergence plant response
From the text: as §1, §2, §3

[4] = system: cocklebur (Xanthium strumarium); assay: Test B pre-/postemergence plant response
From the text: as §1, §2, §3

[5] = system: corn (Zea mays); assay: Test B pre-/postemergence plant response
From the text: as §1, §2, §3

[6] = system: kochia (Kochia scoparia); assay: Test B pre-/postemergence plant response
From the text: as §1, §2, §3

[7] = system: soybean (Glycine max); assay: Test B pre-/postemergence plant response
From the text: as §1, §2, §3

[8] = system: wild oat (Avena fatua); assay: Test B pre-/postemergence plant response
From the text: as §1, §2, §3

[9] = system: morningglory (Ipomoea coccinea); assay: Test B pre-/postemergence plant response
From the text: as §1, §2, §3

[10] = system: giant foxtail (Setaria faberii); assay: Test B pre-/postemergence plant response
From the text: as §1, §2, §3

[11] = system: windgrass (Apera spica-venti); assay: Test B postemergence plant response
Method in brief: (§4)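 Plants grown in peat/vermiculite medium were sprayed postemergence at 2–18 cm height (1- to 4-leaf stage). After 13–15 days in the greenhouse, response was rated visually against untreated controls on a 0–100 scale (0 no effect, 100 complete control).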

[12] = system: canarygrass (Phalaris minor); assay: Test B postemergence plant response
Method in brief: as §4

[13] = system: chickweed (Stellaria media); assay: Test B postemergence plant response
Method in brief: as §4

[14] = system: winter barley (Hordeum vulgare); assay: Test B postemergence plant response
Method in brief: as §4

[15] = 31 g ai/ha, postemergence, scale 0 to 100, 0 is no effect, 100 is complete control
[16] = 250 g ai/ha, Preemergence, 0 to 100 scale
[17] = Postemergence, 62 g ai/ha, scale 0 (no effect) to 100 (complete control), 13 to 15 days
[18] = Postemergence, 125 g ai/ha, visual rating after 13 to 15 days, scale 0 (no effect) to 100 (complete control)
[19] = Postemergence, 250 g ai/ha, scale 0 to 100 (0 no effect, 100 complete control)
[20] = Preemergence, 31 g ai/ha, scale 0 to 100 (0 no effect, 100 complete control)
[21] = Preemergence, 62 g ai/ha, scale 0 to 100 (0 no effect, 100 complete control)
[22] = Preemergence, 125 g ai/ha, scale 0 to 100, 0 no effect, 100 complete control

Structure (SMILES): Cc1cc(-n2c(-c3ccccc3)ncc(C(=O)C3=C(O)CCCC3=O)c2=O)ccc1F [Compound 53]
- Plant response rating, Johnsongrass [1, 15]: 55
- Plant response rating, Johnsongrass [1, 16]: 75
- Plant response rating, Johnsongrass [1, 17]: 95
- Plant response rating, Johnsongrass [1, 18]: 95
- Plant response rating, Johnsongrass [1, 19]: 100
- Plant response rating, Johnsongrass [1, 20]: 10
- Plant response rating, Johnsongrass [1, 21]: 55
- Plant response rating, Johnsongrass [1, 22]: 60
- Plant response rating, Blackgrass [2, 15]: 20
- Plant response rating, Blackgrass [2, 16]: 60
- Plant response rating, Blackgrass [2, 17]: 30
- Plant response rating, Blackgrass [2, 18]: 40
- Plant response rating, Blackgrass [2, 19]: 50
- Plant response rating, Blackgrass [2, 20]: 0
- Plant response rating, Blackgrass [2, 21]: 5
- Plant response rating, Blackgrass [2, 22]: 5
- Plant response rating, Bermudagrass [3, 15]: 90
- Plant response rating, Bermudagrass [3, 16]: 100
- Plant response rating, Bermudagrass [3, 17]: 95
- Plant response rating, Bermudagrass [3, 18]: 98
- Plant response rating, Bermudagrass [3, 19]: 98
- Plant response rating, Bermudagrass [3, 21]: 100
- Plant response rating, Bermudagrass [3, 22]: 100
- Plant response rating, Cocklebur [4, 15]: 80
- Plant response rating, Cocklebur [4, 16]: 70
- Plant response rating, Cocklebur [4, 17]: 85
- Plant response rating, Cocklebur [4, 18]: 85
- Plant response rating, Cocklebur [4, 19]: 90
- Plant response rating, Cocklebur [4, 20]: 10
- Plant response rating, Cocklebur [4, 21]: 20
- Plant response rating, Cocklebur [4, 22]: 65
- Plant response rating, Corn [5, 15]: 55
- Plant response rating, Corn [5, 16]: 20
- Plant response rating, Corn [5, 17]: 80
- Plant response rating, Corn [5, 18]: 80
- Plant response rating, Corn [5, 19]: 85
- Plant response rating, Corn [5, 20]: 0
- Plant response rating, Corn [5, 21]: 0
- Plant response rating, Corn [5, 22]: 0
- Plant response rating, Kochia [6, 15]: 45
- Plant response rating, Kochia [6, 17]: 65
- Plant response rating, Kochia [6, 18]: 75
- Plant response rating, Kochia [6, 19]: 80
- Plant response rating, Soybean [7, 15]: 90
- Plant response rating, Soybean [7, 17]: 95
- Plant response rating, Soybean [7, 18]: 95
- Plant response rating, Soybean [7, 19]: 95
- Plant response rating, Soybean [7, 20]: 0
- Plant response rating, Soybean [7, 21]: 70
- Plant response rating, Soybean [7, 22]: 80
- Plant response rating, Oat, Wild [8, 15]: 50
- Plant response rating, Oat, Wild [8, 17]: 70
- Plant response rating, Oat, Wild [8, 18]: 85
- Plant response rating, Oat, Wild [8, 19]: 85
- Plant response rating, Oat, Wild [8, 20]: 0
- Plant response rating, Oat, Wild [8, 21]: 0
- Plant response rating, Oat, Wild [8, 22]: 0
- Plant response rating, Morningglory [9, 15]: 55
- Plant response rating, Morningglory [9, 17]: 75
- Plant response rating, Morningglory [9, 18]: 80
- Plant response rating, Morningglory [9, 19]: 98
- Plant response rating, Morningglory [9, 20]: 0
- Plant response rating, Morningglory [9, 21]: 20
- Plant response rating, Morningglory [9, 22]: 25
- Plant response rating, Foxtail, Giant [10, 15]: 80
- Plant response rating, Foxtail, Giant [10, 16]: 100
- Plant response rating, Foxtail, Giant [10, 17]: 85
- Plant response rating, Foxtail, Giant [10, 18]: 90
- Plant response rating, Foxtail, Giant [10, 19]: 95
- Plant response rating, Foxtail, Giant [10, 20]: 5
- Plant response rating, Foxtail, Giant [10, 21]: 85
- Plant response rating, Foxtail, Giant [10, 22]: 100
- Plant response rating, Windgrass [11, 15]: 60
- Plant response rating, Windgrass [11, 17]: 80
- Plant response rating, Windgrass [11, 18]: 85
- Plant response rating, Windgrass [11, 19]: 95
- Plant response rating, Canarygrass [12, 15]: 40
- Plant response rating, Canarygrass [12, 17]: 80
- Plant response rating, Canarygrass [12, 18]: 90
- Plant response rating, Canarygrass [12, 19]: 90
- Plant response rating, Chickweed [13, 15]: 85
- Plant response rating, Chickweed [13, 17]: 98
- Plant response rating, Chickweed [13, 18]: 98
- Plant response rating, Chickweed [13, 19]: 100
- Plant response rating, Barley [14, 15]: 0
- Plant response rating, Barley [14, 17]: 50
- Plant response rating, Barley [14, 18]: 70
- Plant response rating, Barley [14, 19]: 70

Structure (SMILES): Cn1c(-c2ccccc2)ncc(C(=O)C2=C(O)CCCC2=O)c1=O [Compound 55]
- Plant response rating, Johnsongrass [1, 15]: 0
- Plant response rating, Johnsongrass [1, 16]: 0
- Plant response rating, Johnsongrass [1, 17]: 0
- Plant response rating, Johnsongrass [1, 18]: 10
- Plant response rating, Johnsongrass [1, 19]: 20
- Plant response rating, Johnsongrass [1, 20]: 0
- Plant response rating, Johnsongrass [1, 21]: 0
- Plant response rating, Johnsongrass [1, 22]: 0
- Plant response rating, Blackgrass [2, 15]: 0
- Plant response rating, Blackgrass [2, 16]: 30
- Plant response rating, Blackgrass [2, 17]: 0
- Plant response rating, Blackgrass [2, 18]: 5
- Plant response rating, Blackgrass [2, 19]: 10
- Plant response rating, Blackgrass [2, 20]: 0
- Plant response rating, Blackgrass [2, 21]: 0
- Plant response rating, Blackgrass [2, 22]: 0
- Plant response rating, Bermudagrass [3, 15]: 80
- Plant response rating, Bermudagrass [3, 16]: 100
- Plant response rating, Bermudagrass [3, 17]: 80
- Plant response rating, Bermudagrass [3, 18]: 85
- Plant response rating, Bermudagrass [3, 19]: 90
- Plant response rating, Bermudagrass [3, 20]: 95
- Plant response rating, Bermudagrass [3, 21]: 98
- Plant response rating, Bermudagrass [3, 22]: 100
- Plant response rating, Cocklebur [4, 15]: 45
- Plant response rating, Cocklebur [4, 16]: 15
- Plant response rating, Cocklebur [4, 17]: 60
- Plant response rating, Cocklebur [4, 18]: 65
- Plant response rating, Cocklebur [4, 19]: 75
- Plant response rating, Cocklebur [4, 20]: 0
- Plant response rating, Cocklebur [4, 21]: 10
- Plant response rating, Cocklebur [4, 22]: 10
- Plant response rating, Corn [5, 15]: 0
- Plant response rating, Corn [5, 16]: 0
- Plant response rating, Corn [5, 17]: 5
- Plant response rating, Corn [5, 18]: 5
- Plant response rating, Corn [5, 19]: 10
- Plant response rating, Corn [5, 20]: 0
- Plant response rating, Corn [5, 21]: 0
- Plant response rating, Corn [5, 22]: 0
- Plant response rating, Kochia [6, 15]: 20
- Plant response rating, Kochia [6, 17]: 65
- Plant response rating, Kochia [6, 18]: 75
- Plant response rating, Kochia [6, 19]: 85
- Plant response rating, Soybean [7, 15]: 25
- Plant response rating, Soybean [7, 17]: 60
- Plant response rating, Soybean [7, 18]: 60
- Plant response rating, Soybean [7, 19]: 75
- Plant response rating, Soybean [7, 20]: 0
- Plant response rating, Soybean [7, 21]: 0
- Plant response rating, Soybean [7, 22]: 15
- Plant response rating, Oat, Wild [8, 15]: 0
- Plant response rating, Oat, Wild [8, 17]: 0
- Plant response rating, Oat, Wild [8, 18]: 0
- Plant response rating, Oat, Wild [8, 19]: 5
- Plant response rating, Oat, Wild [8, 20]: 0
- Plant response rating, Oat, Wild [8, 21]: 0
- Plant response rating, Oat, Wild [8, 22]: 0
- Plant response rating, Morningglory [9, 15]: 55
- Plant response rating, Morningglory [9, 17]: 60
- Plant response rating, Morningglory [9, 18]: 75
- Plant response rating, Morningglory [9, 19]: 85
- Plant response rating, Morningglory [9, 20]: 0
- Plant response rating, Morningglory [9, 21]: 0
- Plant response rating, Morningglory [9, 22]: 45
- Plant response rating, Foxtail, Giant [10, 15]: 25
- Plant response rating, Foxtail, Giant [10, 16]: 10
- Plant response rating, Foxtail, Giant [10, 17]: 30
- Plant response rating, Foxtail, Giant [10, 18]: 55
- Plant response rating, Foxtail, Giant [10, 19]: 75
- Plant response rating, Foxtail, Giant [10, 20]: 0
- Plant response rating, Foxtail, Giant [10, 21]: 0
- Plant response rating, Foxtail, Giant [10, 22]: 0
- Plant response rating, Windgrass [11, 15]: 0
- Plant response rating, Windgrass [11, 17]: 0
- Plant response rating, Windgrass [11, 18]: 0
- Plant response rating, Windgrass [11, 19]: 5
- Plant response rating, Canarygrass [12, 15]: 0
- Plant response rating, Canarygrass [12, 17]: 0
- Plant response rating, Canarygrass [12, 18]: 0
- Plant response rating, Canarygrass [12, 19]: 0
- Plant response rating, Chickweed [13, 15]: 65
- Plant response rating, Chickweed [13, 17]: 75
- Plant response rating, Chickweed [13, 18]: 80
- Plant response rating, Chickweed [13, 19]: 90
- Plant response rating, Barley [14, 15]: 0
- Plant response rating, Barley [14, 17]: 0
- Plant response rating, Barley [14, 18]: 0
- Plant response rating, Barley [14, 19]: 0
